Here are results for three molecules from patent US20080188494A1 (priority 2005, published 2008).

As a reminder, the melting point is the temperature of the solid-liquid transition.

Series [1] deals with Plasmopara viticola. Nature of the series: Activity against peronospora of grapevines caused by Plasmopara viticola (Use Example 3). In kind it is in vivo. Particulars: 250 ppm, potted vines sprayed to runoff, inoculated next day; untreated plants 90% infected. Here is the method: (§1) The active compounds were prepared as a stock solution comprising 25 mg of active compound which was made up to 10 ml using a mixture of acetone and/or DMSO and the emulsifier Uniperol® EL (wetting agent having emulsifying and dispersing action based on ethoxylated alkylphenols) in a volume ratio of solvent/emulsifier of 99/1. The mixture was then made up to 100 ml with water. This stock solution was diluted with the solvent/emulsifier/water mixture described to the concentration of active compounds stated below.
(§2) Leaves of potted vines were sprayed to runoff point with an aqueous suspension having the concentration of active compounds stated below. The next day, the undersides of the leaves were inoculated with an aqueous sporangia suspension of Plasmopara viticola. The vines were then initially placed in a water-vapor-saturated chamber at 24° C. for 48 hours and then in a greenhouse at temperatures between 20° C. and 30° C. for 5 days. After this time, the plants were once more placed in a humid chamber for 16 hours to accelerate the eruption of sporangiospores. The extent of the development of the infection on the undersides of the leaves was then determined visually.

Series [2] has as its system Plasmopara viticola. Nature of the series: Activity against peronospora of grapevines caused by Plasmopara viticola, 7 day protective treatment (Comparative Example 2). In kind it is in vivo. The conditions noted are these: 250 ppm, potted vines, inoculated 7 days after spraying; untreated plants 90% infected. Here is the method: as §1
Leaves of potted vines were sprayed to runoff point with an aqueous suspension having the concentration of active compounds stated below. To be able to assess the persistency of the substances, the plants were, after the spray coating had dried on, placed in a greenhouse for 7 days. Only then were the leaves inoculated with an aqueous zoospore suspension of Plasmopara viticola. The vines were then initially placed in a water-vapor-saturated chamber at 24° C. for 48 hours and then in a greenhouse at temperatures between 20 and 30° C. for 5 days. After this time, the plants were once more placed in a humid chamber to accelerate the eruption of sporangiospores. The extent of the development of the infection on the undersides of the leaves was then determined visually.

The test system of series [3] is Plasmopara viticola. Nature of the series: Activity against peronospora of grapevines caused by Plasmopara viticola (Comparative Example 1, inoculation next day). Particulars: 250 ppm, potted vines sprayed to runoff, inoculated next day; untreated plants 90% infected. In kind it is in vivo. As to the method: as §1, §2

In turn, `CCCc1nc2ncnn2c(N)c1CCc1ccccc1` [I-2, 7-amino-6-(2-phenylethyl)-5-propyl-(1,2,4)-triazolo-(1,5-a)-pyrimidine] returned a melting point of 190 to 191 °C. In addition, the “infection of the plants (undersides of leaves, determined visually)” value (shortened to “infection of the plants”) with Plasmopara viticola [1] is reported as “no infection”.

On to `Cc1nc2ncnn2c(N)c1CCCc1ccccc1` [Compound A], for which the “infection of the plants” value in the series on Plasmopara viticola [2] is on record as 70%; in the series on Plasmopara viticola [3], 90%.

In turn, `CCc1nc2ncnn2c(N)c1CCc1ccccc1` [I-1, 7-amino-5-ethyl-6-(2-phenylethyl)-(1,2,4)-triazolo-(1,5-a)-pyrimidine] gave a melting point of 210 to 211 °C. The “infection of the plants” value in the series with Plasmopara viticola [1] was “no infection”.
